Data on one compound can be found in article PMC7939473, “Unique active-site and subsite features in the arabinogalactan-degrading GH43 exo-β-1,3-galactanase from Phanerochaete chrysosporium” (The Journal of Biological Chemistry, 2021).

The target in the test is T1, Pc1,3Gal43A (Phanerodontia chrysosporium, UniProt Q50KB2, E208A).
T1 construct: signal peptide removed; Gln21-Tyr448 (428 residues) plus two extra N-terminal residues Glu19-Phe20 from restriction site; GH43_sub24 catalytic domain (21-325) + CBM35 (326-448); expressed in Pichia pastoris, N-glycosylated at Asn79, Asn194, Asn389; monomer in solution
Nature of the test: X-ray crystallography (co-crystal, […] Å). The conditions noted are these: ligand-binding site of the CBM35 domain (not in catalytic site); 10 mM Gal3; pH 4.5.

T1 sequence (Q50KB2 entry or part of it E208A): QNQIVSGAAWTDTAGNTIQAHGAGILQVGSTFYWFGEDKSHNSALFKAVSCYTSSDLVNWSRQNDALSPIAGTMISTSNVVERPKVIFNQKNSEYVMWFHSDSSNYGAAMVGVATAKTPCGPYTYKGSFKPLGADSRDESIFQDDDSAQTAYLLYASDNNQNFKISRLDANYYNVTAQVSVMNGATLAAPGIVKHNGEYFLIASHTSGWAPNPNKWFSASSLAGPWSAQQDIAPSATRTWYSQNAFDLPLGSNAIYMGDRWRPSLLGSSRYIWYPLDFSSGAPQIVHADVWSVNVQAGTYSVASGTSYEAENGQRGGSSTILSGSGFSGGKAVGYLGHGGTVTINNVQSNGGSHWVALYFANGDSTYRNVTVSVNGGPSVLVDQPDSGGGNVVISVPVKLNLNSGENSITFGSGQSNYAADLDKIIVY

Regarding `OC[C@H]1O[C@@H](O[C@H]2[C@@H](O)[C@@H](CO)O[C@@H](O[C@H]3[C@@H](O)[C@@H](CO)OC(O)[C@@H]3O)[C@@H]2O)[C@H](O)[C@@H](O)[C@H]1O` (stereo partly drawn) [Gal3, β-1,3-galactotriose], the “X-ray crystallography (co-crystal, 2.3 Å)” value is “In E208A_Gal3, electron density of Gal3 was observed in the ligand-binding site of PcCBM35”.
